Test results as given in patent US11571423B2, “Small molecule modulators of human sting” (Curadev Pharma Limited, priority 2017, dated 2023).

What was measured:
hSTING(R232) = hSTING(R232) (Homo sapiens, UniProt Q86WV6, H232R); test: Luciferase reporter assay in HEK293T-hSTING-Luciferase cells, R232 (wild type) human STING; assay type: cell-based; conditions: 20 hr stimulation, read-out: R232 human activity (EC50 range)
Outline: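 After 20 hr compound stimulation of 5×10^5 cells, secreted luciferase in the supernatant was measured by luminescence; values are fold-induction over baseline and EC50. The line is a clonal HEK293T stably carrying a STING plasmid (pUNO-1) and a luciferase reporter under five tandem ISREs fused to an ISG54 promoter.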

[1] = target: cynomolgus monkey STING protein (Macaca fascicularis, UniProt A0A2R3XZA6); test: Luciferase reporter assay, cynomolgus monkey STING overexpressed in HEK293T cells; assay type: cell-based; conditions: cynomolgus monkey STING overexpressed in HEK293T cells; read-out: Cynomolgus monkey STING activity (EC50 range)
Sequence of cynomolgus monkey STING protein (A0A2R3XZA6 entry or part of it): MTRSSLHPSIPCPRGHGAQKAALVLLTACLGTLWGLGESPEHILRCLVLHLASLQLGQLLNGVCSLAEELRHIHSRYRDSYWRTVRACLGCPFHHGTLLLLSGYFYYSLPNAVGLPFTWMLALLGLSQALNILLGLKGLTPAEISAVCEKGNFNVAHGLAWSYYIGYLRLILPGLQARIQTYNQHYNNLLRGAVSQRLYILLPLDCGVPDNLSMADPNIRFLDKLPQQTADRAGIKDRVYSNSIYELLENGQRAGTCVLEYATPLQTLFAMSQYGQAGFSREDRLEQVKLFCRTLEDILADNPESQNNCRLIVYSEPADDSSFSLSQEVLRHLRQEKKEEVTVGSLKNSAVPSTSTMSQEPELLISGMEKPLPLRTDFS
Outline: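 HEK293T cells overexpressing cynomolgus STING with a secreted luciferase reporter were stimulated with compound for 20 hr. Supernatant reporter activity was then measured by Quanti-Luc luminescence, and EC50 values were derived.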

Sequence of hSTING(R232) (Q86WV6 whole entry H232R, the tested form may be a part): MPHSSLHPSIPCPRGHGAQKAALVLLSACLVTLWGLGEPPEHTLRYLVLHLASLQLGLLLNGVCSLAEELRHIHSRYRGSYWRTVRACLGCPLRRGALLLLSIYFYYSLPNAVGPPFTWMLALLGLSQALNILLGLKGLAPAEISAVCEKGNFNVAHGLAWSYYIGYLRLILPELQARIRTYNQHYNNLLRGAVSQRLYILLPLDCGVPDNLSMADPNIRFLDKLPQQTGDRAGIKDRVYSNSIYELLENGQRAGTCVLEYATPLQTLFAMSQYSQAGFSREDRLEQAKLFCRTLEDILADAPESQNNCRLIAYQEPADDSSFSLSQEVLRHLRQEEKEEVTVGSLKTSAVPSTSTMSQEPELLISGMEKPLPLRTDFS

C[C@H]1c2ccc(C(=O)NCc3c(F)cc(F)cc3F)cc2N(Cc2c(F)ccc(OP(=O)(O)O)c2F)C(=O)N1C [Example 102, (S)-3-((3,4-dimethyl-2-oxo-7-((2,4,6-trifluorobenzyl)carbamoyl)-3,4-dihydroquinazolin-1(2H)-yl)methyl)-2,4-difluorophenyl dihydrogen phosphate]
EC50 (hSTING(R232)): < 1000 nM | EC50 [1]: < 1000 nM

COc1cc(F)cc(F)c1CN1C(=O)N(C)[C@@H](C)c2ccc(C(=O)NCc3c(F)cc(F)cc3F)cc21 [Example 259, (S)-1-(2,4-difluoro-6-methoxybenzyl)-3,4-dimethyl-2-oxo-N-(2,4,6-trifluorobenzyl)-1,2,3,4-tetrahydroquinazoline-7-carboxamide]
EC50 (hSTING(R232)): < 1000 nM | EC50 [1]: < 1000 nM

COc1ncc(Cl)c(CN2C(=O)N(C)[C@@H](C)c3ccc(C(=O)NCc4c(F)cc(F)cc4F)cc32)c1F [Example 184, (S)-1-((5-chloro-3-fluoro-2-methoxypyridin-4-yl)methyl)-3,4-dimethyl-2-oxo-N-(2,4,6-trifluorobenzyl)-1,2,3,4-tetrahydroquinazoline-7-carboxamide]
EC50 (hSTING(R232)): < 1000 nM | EC50 [1]: < 1000 nM

C[C@H]1c2ccc(C(=O)NCc3c(F)cc(F)cc3F)cc2N(Cc2cc(OCCO)ccc2F)C(=O)N1C [Example 263, (S)-1-(2-fluoro-5-(2-hydroxyethoxy)benzyl)-3,4-dimethyl-2-oxo-N-(2,4,6-trifluorobenzyl)-1,2,3,4-tetrahydroquinazoline-7-carboxamide]
EC50 (hSTING(R232)): < 1000 nM | EC50 [1]: 1000 to 10000 nM

C[C@H]1c2ccc(C(=O)NCc3c(F)cc(F)cc3F)cc2N(Cc2c(F)cc(N)cc2F)C(=O)N1C [Example 286, (S)-1-(4-amino-2,6-difluorobenzyl)-3,4-dimethyl-2-oxo-N-(2,4,6-trifluorobenzyl)-1,2,3,4-tetrahydroquinazoline-7-carboxamide]
EC50 (hSTING(R232)): < 1000 nM | EC50 [1]: < 1000 nM

C=CCOc1cc(F)c(CN2C(=O)N(C)[C@@H](C)c3ccc(C(=O)NCc4c(F)cc(F)cc4F)cc32)c(F)c1 [Example 144]
EC50 (hSTING(R232)): < 1000 nM | EC50 [1]: < 1000 nM

C[C@H]1c2ccc(C(=O)NCc3c(F)cc(F)cc3F)cc2N(Cc2c(F)cc(OCCOP(=O)(O)O)cc2F)C(=O)N1C [Example 97, (S)-2-(4-((3,4-dimethyl-2-oxo-7-((2,4,6-trifluorobenzyl)carbamoyl)-3,4-dihydroquinazolin-1(2H)-yl)methyl)-3,5-difluorophenoxy)ethyl dihydrogen phosphate]
EC50 (hSTING(R232)): < 1000 nM | EC50 [1]: < 1000 nM
